Assay results: US12083140B2, “Pharmaceutical composition for preventing and treating glaucoma, containing adenosine derivative” (FUTURE MEDICINE CO., LTD., priority 2017, dated 2024)

Tests used:
[1] = tested on: TPA-induced mouse ear edema; assay: Anti-inflammatory activity, TPA-induced mouse ear edema; type: in vivo, ICR mice; conditions: 0.5% in acetone
Procedure: In order to investigate the anti-inflammatory activity of the derivatives of the present invention, the animal experiments were performed as below. Seven-week-old male ICR mice were treated with TPA (12-O-tetradecanoylphorbol 13-acetate, […]) in the right ear. […] The same experiment was performed by treating hydrocortisone used as a treatment agent for inflammation as a control at the same concentration.
Subsequently, secondly, the adenosine derivative compound of the present invention was treated after 6 hours from TPA treatment. Twenty-four hours after TPA treatment, the animals were euthanized using the cervical dislocation method. Then, a right ear sample was obtained using a 6 mm diameter punch. The activity could be confirmed by weighing using a microbalance. The inhibition rate (%) was calculated using the following Equation 1.

[2] = tested on: TIMP (TIMP 1, TIMP2); assay: TIMP enzyme protein and mRNA expression in trabecular meshwork tissue; type: in vivo, C57BL/6J mice; conditions: Example 2 oral 20 mg/kg once a day and 10 mg/kg twice a day; acetazolamide 4.17 mg/kg once a day
Procedure: (§1) In Experimental Example 10, the expression amounts of these proteins and mRNAs in MMP and TIMP enzymes were measured for the eye tissues of the respective laboratory animals which the measurement of the intraocular pressure was completed, and the results are shown in FIG. 14 to FIG. 17. FIG. 14 and FIG. 15 show protein expression amounts of MMP (MMP2, MMP9) and TIMP (TIMP 1, TIMP2) enzymes, respectively. FIG. 16 and FIG. 17 show mRNA expression levels. In FIG. 14 to FIG. 17, Normal represents the expression level of the animal to which the dexamethasone was not treated in Experimental Example 10, Control represents the expression level of the animal to which only the excipient was administered in Experimental Example 10, and Acetazolamide represents the expression level of the animal to which acetazolamide was administered in Experimental Example 10.

[3] = tested on: MMP (MMP2, MMP9); assay: MMP enzyme protein and mRNA expression in trabecular meshwork tissue; type: in vivo, C57BL/6J mice; conditions: Example 2 oral 20 mg/kg once a day and 10 mg/kg twice a day; acetazolamide 4.17 mg/kg once a day
Procedure: as §1

[4] = tested on: intraocular pressure; assay: Intraocular pressure reduction after oral administration, dexamethasone-elevated intraocular pressure; type: in vivo, C57BL/6J mice; conditions: oral, 5, 10, 20 mg/kg once a day and 10 mg/kg twice a day, 22 days
Procedure: In order to examine the intraocular pressure lowering effect of the derivatives of the present invention, the following animal experiments were performed. […] As controls, only the above excipients were administered to laboratory animals with elevated intraocular pressure once a day, or experimental animals were not treated with dexamethasone or with 4.17 mg/kg of acetazolamide, an intraocular pressure lowering agent, once a day.
Then, the intraocular pressure of the test animal was measured at predetermined intervals for 22 days, and the results are shown in FIG. 8 to FIG. 12. In FIG. 8 to FIG. 12, Control represents a control group in which dexamethasone is not treated to laboratory animals, Vehicle represents a control group in which only excipients were orally administered to laboratory animals with elevated intraocular pressure, and Acetazolamide represents control group in which acetazolamide, an intraocular pressure lowering agent was orally administered to laboratory animals with elevated intraocular pressure.

[5] = tested on: each cell line; assay: Cytotoxicity, Cyto X cell viability assay kit; type: cell-based
[6] = tested on: histidine-requiring Salmonella (TA98, TA100, TA1535 and TA1537 strains) and tryptophan-requiring E. coli (WP2uvrA (pKM101) strain); assay: Genotoxicity, back-mutation test with and without metabolic activation; type: cell-based
[7] = tested on: extracellular matrix proteins (Fibronectin, SMA and MYOC); assay: Anti-fibrotic effect on trabecular meshwork tissue (immunostaining); type: in vivo, C57BL/6J mice; conditions: Example 2 oral 20 mg/kg once a day and 10 mg/kg twice a day; acetazolamide 4.17 mg/kg once a day
Procedure: In Experimental Example 10, the ocular tissues of each laboratory animal after measurement of intraocular pressure were extracted and sectioned and immunostaining using antibody was performed to confirm the expression of extracellular matrix proteins (Fibronectin, SMA and MYOC) and the results are shown in FIG. 13. In FIG. 13, Normal represents the trabecular meshwork of the animal which dexamethasone was not treated with in Experimental Example 10, Control represents the trabecular meshwork tissue of the animal to which only the excipient was administered in Experimental Example 10, Acetazolamide represents the trabecular meshwork tissue of the animal to which acetazolamide was administered in Experimental Example 10. Fluorescently stained tissue was observed under fluorescence microscope under the same conditions (magnification 200×, exposure time 1 sec).

[8] = molecular target: hERG (Homo sapiens, UniProt Q12809); assay: Cardiotoxicity, hERG ligand binding assay (fluorescence polarization)
[9] = tested on: rats; assay: Single dose toxicity test; type: in vivo

Chain of hERG (Q12809 whole entry): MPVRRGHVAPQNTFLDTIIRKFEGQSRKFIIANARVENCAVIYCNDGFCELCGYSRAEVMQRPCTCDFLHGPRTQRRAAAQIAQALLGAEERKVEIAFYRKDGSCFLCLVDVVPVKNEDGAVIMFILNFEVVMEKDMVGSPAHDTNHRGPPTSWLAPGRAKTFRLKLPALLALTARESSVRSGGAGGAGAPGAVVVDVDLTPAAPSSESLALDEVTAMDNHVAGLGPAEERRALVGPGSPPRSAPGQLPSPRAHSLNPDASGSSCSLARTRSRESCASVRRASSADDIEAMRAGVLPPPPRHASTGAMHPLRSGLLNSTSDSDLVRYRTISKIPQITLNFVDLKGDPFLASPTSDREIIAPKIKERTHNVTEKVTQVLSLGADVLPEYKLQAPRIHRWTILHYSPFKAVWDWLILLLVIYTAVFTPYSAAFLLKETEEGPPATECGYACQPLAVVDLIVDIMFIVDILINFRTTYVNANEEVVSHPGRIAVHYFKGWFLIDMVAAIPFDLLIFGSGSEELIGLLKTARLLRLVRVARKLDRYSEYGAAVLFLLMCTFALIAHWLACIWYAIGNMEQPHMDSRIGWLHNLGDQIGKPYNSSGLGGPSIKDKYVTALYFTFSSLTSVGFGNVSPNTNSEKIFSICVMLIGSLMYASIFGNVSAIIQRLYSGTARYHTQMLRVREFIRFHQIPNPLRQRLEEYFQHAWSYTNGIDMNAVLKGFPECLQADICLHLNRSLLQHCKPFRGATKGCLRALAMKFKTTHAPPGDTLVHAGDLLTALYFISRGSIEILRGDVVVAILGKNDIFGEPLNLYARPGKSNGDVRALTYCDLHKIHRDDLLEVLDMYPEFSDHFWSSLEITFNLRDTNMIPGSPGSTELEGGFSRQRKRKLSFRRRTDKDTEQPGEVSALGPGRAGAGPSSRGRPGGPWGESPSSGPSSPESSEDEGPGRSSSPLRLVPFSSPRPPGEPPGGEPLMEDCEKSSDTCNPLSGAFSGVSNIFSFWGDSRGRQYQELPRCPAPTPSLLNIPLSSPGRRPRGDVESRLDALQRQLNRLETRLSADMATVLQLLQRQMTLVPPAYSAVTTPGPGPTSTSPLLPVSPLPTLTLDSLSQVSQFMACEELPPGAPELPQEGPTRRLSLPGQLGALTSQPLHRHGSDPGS

## O[C@@H]1[C@H](O)CS[C@H]1n1cnc2c(NCc3cccc(Cl)c3)nc(Cl)nc21 [Example 2, (2R,3R,4S)-2-(2-chloro-6-(3-chlorobenzylamino)-9H-purin-9-yl)tetrahydrothiophene-3,4-diol]
[1]
  TPA-induced mouse ear edema: reduced by a small amount
[2]
  protein and mRNA expression levels of TIMP enzyme compared with the normal group: significantly decreased
[3]
  protein and mRNA expression levels of MMP enzyme compared with the normal group: significantly increased
[4]
  intraocular pressure, dose dependence: reduction in intraocular pressure, which was dependent on the dose
[5]
  toxicity, Cytotoxicity Test: Not found
[6]
  toxicity, Genotoxicity test: Not found
[6]; all doses of each strain, regardless of metabolic activation
  number of back-mutation reversion colonies: did not exceed twice the negative control
[7]
  expression of fibronectin, SMA and MYOC protein in trabecular meshwork tissue: greatly reduced
[8]
  toxicity, Cardiotoxicity test: Not found
[8]; human, hERG channel protein (ligand binding assay), probe red fluorescent hERG channel ligand tracer, 10 μM, read-out: inhibition rate (hERG channel ligand tracer binding)
  inhibition at 10 µM: ≤ 50%
[9]; rat, in vivo
  toxicity, Single dose toxicity test: Not found
[9]; single dose of 2,000 mg/kg, 5 male rats and 5 female rats
  dead animals: there was no dead animal
